In patent publication US20130029942A1, “COMPOUNDS AND THERAPEUTICAL USES THEREOF” (Myrexis, Inc., priority 2003, published 2013):
Read-outs that look alike come from different tables or passages of the source.

System: T-47D cells
Test: Caspase cascade activation / induction of apoptosis in T-47D cells (fluorogenic N-(Ac-DEVD)-N'-ethoxycarbonyl-R110 substrate)
Assay type: cell-based, human
Settings: for EC50: Homo sapiens, T47D
[1] = T-47D, 48 hr, read-out: T-47D (48 hr) EC50
[2] = T-47D, 24 hr, read-out: T-47D (24 hr) EC50
[3] = T-47D, 48 hr, benzohydrazide table, read-out: T-47D (48 hr) EC50
[4] = T-47D, 48 hr, benzohydrazide table

Compound	EC50 [1] [nM]	EC50 [2] [nM]	other results
COC(=O)c1ccc(N(C)c2nc(Cl)nc3ccccc23)cc1 [Example 52, (2-Chloro-quinazolin-4-yl)-(4-methylcarboxyphenyl)-methyl-amine]	6	–	–
COc1ccc(N(c2nc(Cl)nc3ccccc23)C2CCCC2)cc1 [Example 45, (2-Chloro-quinazolin-4-yl)-cyclopentyl-(4-methoxy-phenyl)-amine]	> 10000	–	–
COc1ccc(N(C)c2ccnc3ccccc23)cc1 [Example 66, (4-Methoxy-phenyl)-methyl-(quinolin-4-yl)-amine]	22	18	–
CN(NC(=O)c1ccccc1F)c1nc(C(F)(F)F)nc2ccccc12	–	–	EC50 [3]: 184 nM; T-47D (48 hr) Ratio [4]: 13.7
COc1ccc(N(C)c2nc(Cl)nc3ccccc23)cc1OC [Example 68, (2-Chloro-quinazolin-4-yl)-(3,4-dimethoxy-phenyl)-methyl-amine]	4	–	–
COc1cc(OC)c(Nc2nc(C)nc3ccccc23)c(OC)c1 [Example 82, (2-Methyl-quinazolin-4-yl)-(2,4,6-trimethoxy-phenyl)-amine]	–	> 10000	–
[2H]c1c([2H])c(N(C)c2nc(C)nc3ccccc23)c([2H])c([2H])c1OC [Example 108, (4-Methoxy-phenyl-2,3,5,6-d4)-(2-methyl-quinazolin-4-yl)-methyl-amine]	–	–	EC50 (24 h, read-out: T-47D (24 hr) EC50 (nM)): 1 nM
COc1cc2nc(Cl)nc(N(C)c3ccc(C)cc3)c2cc1OC [Example 22, (2-Chloro-6,7-dimethoxyquinazolin-4-yl)-(4-methyl-phenyl)-methyl-amine]	> 10000	> 10000	–
COc1ccc(N(C)c2nc(N)nc3[nH]cnc23)cc1 [Example 17, N^6-(4-Methoxy-phenyl)-N^6-methyl-9H-purine-2,6-diamine]	–	7940	–
CSc1nc(N(C)NC(=O)c2ccc(Cl)cc2)c2ccccc2n1	–	–	EC50 [3]: 138 nM; T-47D (48 hr) Ratio [4]: 14.4
COc1ccc(N(C)c2nc(Cl)nc3cc(C)ccc23)cc1 [Example 57, (2-Chloro-7-methyl-quinazolin-4-yl)-(4-methoxy-phenyl)-methyl-amine]	432	–	–
CN(c1ccc(OC(F)(F)F)cc1)c1nc(Cl)nc2ccccc12 [Example 5, (2-Chloro-quinazolin-4-yl)-(4-trifluoromethoxy-phenyl)-methyl-amine]	–	24	–
COc1ccc(N(C)c2nc(N)nc3ccccc23)cc1 [Example 12, N^4-(4-Methoxy-phenyl)-methyl-quinazoline-2,4-diamine]	9	8	EC50 (Table III, time not given, repeats 24 hr or 48 hr T-47D values of Table I, read-out: Caspase activation (EC50 nM)): 8 nM
COc1ccc(N(C)c2nc(Cl)nc3[nH]cnc23)cc1 [Example 51, (2-Chloro-9H-purin-6-yl)-(4-methoxy-phenyl)-methyl-amine]	> 10000	–	–
COc1ccc(N(C)c2nc(Cl)nc3c(C)cccc23)cc1 [Example 59, (2-Chloro-8-methyl-quinazolin-4-yl)-(4-methoxy-phenyl)-methyl-amine]	11	–	–
CSc1nc(N(C)NC(=O)c2ccccc2)c2ccccc2n1	–	–	EC50 [3]: 149 nM; T-47D (48 hr) Ratio [4]: 14.7
Cc1ccc(Nc2nc(Cl)nc3ccccc23)cc1 [Example 8, (2-Chloro-quinazolin-4-yl)-(4-methyl-phenyl)-amine]	–	> 10000	–
COc1ccc(N(C)c2nc(NCCN3CCOCC3)nc3ccccc23)cc1 [Example 14, N^4-(4-Methoxy-phenyl)-N^4-methyl-N^2-(2-morpholin-4-yl-ethyl)-quinazoline-2,4-diamine]	1330	1340	–
COc1ccc(N(C)c2nc(Cl)nc3cccc(C)c23)cc1 [Example 58, (2-Chloro-5-methyl-quinazolin-4-yl)-(4-methoxy-phenyl)-methyl-amine]	1	–	–
CSc1nc(N(C)NC(=O)c2cccs2)c2ccccc2n1	–	–	EC50 [3]: 737 nM; T-47D (48 hr) Ratio [4]: 10.1
COc1ccc(N(C)c2nc(N3CCOCC3)nc3ccccc23)cc1 [Example 15, (4-Methoxy-phenyl)-methyl-(2-morpholin-4-yl-quinazolin-4-yl)-amine]	89	56	–
COc1ccc(Oc2ncnc3ccccc23)cc1 [Example 71, 4-(4-Methoxy-phenoxy)-quinazoline]	2260	–	–
COc1ccc(N(C)c2nc(N(C)c3ccc(OC)cc3)c3cc(Cl)ccc3n2)cc1 [Example 61, 6-Chloro-N^2,N^4-bis-(4-methoxy-phenyl)-N^2,N^4-dimethyl-quinazoline-2,4-diamine]	4050	–	–

More lines, main results first:

EC50 [1] [nM]	EC50 [2] [nM]	Compound	other results
–	> 10000	C[C@H]1CC[C@@H](Nc2nc(Cl)nc3ccccc23)CC1 [Example 130, (2-Chloro-quinazolin-4-yl)-(cis-4-methylcyclohexyl)-amine]	–
–	175	Cc1nc(N(C)c2ccc(N)cc2)c2ccccc2n1 [Example 101, (4-Amino-phenyl)-(2-methyl-quinazolin-4-yl)-methyl-amine]	–
–	> 10000	Cc1nc(N(C)c2cnccn2)c2ccccc2n1 [Example 134, (2-Methyl-quinazolin-4-yl)-(pyrazin-2-yl)-methyl-amine]	–
–	27	CNc1nc(N(C)c2ccc(OC)nc2)c2ccccc2n1 [Example 129, (2-Methylamino-quinazolin-4-yl)-(6-methoxy-pyridin-3-yl)-methyl-amine]	–
–	4660	COc1ccc(N(c2nc(C)nc3ccccc23)C(F)F)cc1 [Example 139, Difluoromethyl-(4-methoxy-phenyl)-(2-methyl-quinazolin-4-yl)-amine]	–
–	> 10000	Cc1nc(N(C)c2ccncc2)c2ccccc2n1 [Example 136, (2-Methyl-quinazolin-4-yl)-(pyridin-4-yl)-methyl-amine]	–
24	–	COc1ccc(N(C)c2nc(Cl)nc3c(Cl)cccc23)cc1 [Example 89, (2,8-Dichloro-quinazolin-4-yl)-(4-methoxy-phenyl)-methyl-amine]	–
–	> 10000	COc1ccc(N(C)c2nc(C(=O)O)nc3ccccc23)cc1 [Example 118, 4-(N-(4-Methoxy-phenyl)-N-methylamino)quinazoline-2-carboxylic acid]	–
–	735	COc1ccc(N(C)c2nc(C)nc3cc(N)ccc23)cc1 [Example 113, (7-Amino-2-methyl-quinazolin-4-yl)-(4-methoxy-phenyl)-methyl-amine]	–
–	274	COc1ccc(N(C)c2nc(C)nc3ccc([N+](=O)[O-])cc23)cc1 [Example 109, (4-Methoxy-phenyl)-(2-methyl-6-nitro-quinazolin-4-yl)-methyl-amine]	–
–	8	Cc1nc(N(C)c2ccc(OC(F)F)cc2)c2ccccc2n1 [Example 84, (4-Difluoromethoxy-phenyl)-(2-methyl-quinazolin-4-yl)-methyl-amine]	–
–	134	CCOC(=O)c1nc(N(C)c2ccc(OC)cc2)c2ccccc2n1 [Example 117, Ethyl 4-(N-(4-Methoxy-phenyl)-N-methylamino)quinazoline-2-carboxylate]	–
–	7	COc1ccc(N(C)c2nc(C)nc3ccc(N)cc23)cc1 [Example 110, (6-Amino-2-methyl-quinazolin-4-yl)-(4-methoxy-phenyl)-methyl-amine]	–
–	30	COc1ccc(N(C)c2nc(N=[N+]=[N-])nc3ccccc23)cc1 [Example 121, (2-Azido-quinazolin-4-yl)-(4-methoxy-phenyl)-methyl-amine]	–
–	25	CCc1ccc(N(C)c2nc(C)nc3ccccc23)cc1 [Example 87, (4-Ethyl-phenyl)-(2-methyl-quinazolin-4-yl)-methyl-amine]	–
–	> 10000	COc1ccc(Nc2nc(C)nc3ccccc23)nc1 [Example 137, (5-Methoxy-pyridin-2-yl)-(2-methyl-quinazolin-4-yl)-amine]	–
–	556	COc1cc(OC)c(N(C)c2nc(C)nc3ccccc23)c(OC)c1 [Example 88, (2-Methyl-quinazolin-4-yl)-(2,4,6-trimethoxy-phenyl)-methyl-amine]	–
–	41	Cc1nc(N(C)c2ccc(OC(C)C)cc2)c2ccccc2n1 [Example 86, (4-Isopropoxy-phenyl)-(2-methyl-quinazolin-4-yl)-methyl-amine]	–
–	> 10000	C[C@H]1CC[C@H](Nc2nc(Cl)nc3ccccc23)CC1 [Example 131, (2-chloro-quinazolin-4-yl)-(trans-4-methylcyclohexyl)-amine]	T-47D (24 hr) Ratio (caspase activity, net RFU compound / control) (T-47D, 24 hr): 1.2
–	385	COc1ccc(N(C)c2nc(C)nc3ccccc23)nn1 [Example 125, (6-Methoxy-pyridazin-3-yl)-(2-methyl-quinazolin-4-yl)-methyl-amine]	–
–	> 10000	COc1ccc(Nc2nc(C)nc3ccccc23)c(F)c1 [Example 96, (2-Fluoro-4-methoxy-phenyl)-(2-methyl-quinazolin-4-yl)-amine]	–
168	–	COc1ccc(N(C)c2nc(-c3ccccc3)nc3ccccc23)cc1 [Example 83, (4-Methoxy-phenyl)-(2-phenyl-quinazolin-4-yl)-methyl-amine]	–
–	474	Cc1nc(N(C)c2ccc([N+](=O)[O-])cc2)c2ccccc2n1 [Example 100, (2-Methyl-quinazolin-4-yl)-(4-nitro-phenyl)-methyl-amine]	–
–	130	COc1ccc(N(C)c2nc(C)nc3cc(N=[N+]=[N-])ccc23)cc1 [Example 114, (7-Azido-2-methyl-quinazolin-4-yl)-(4-methoxy-phenyl)-methyl-amine]	–
–	65	Cc1nc(N(C)c2ccc(O)cc2)c2ccccc2n1 [Example 93, (4-Hydroxy-phenyl)-(2-methyl-quinazolin-4-yl)-methyl-amine]	–
–	32	COc1ccc(N(C)c2nc(C)nc3ccc(N=[N+]=[N-])cc23)cc1 [Example 111, (6-Azido-2-methyl-quinazolin-4-yl)-(4-methoxy-phenyl)-methyl-amine]	–
16	5	Cc1nc(N(C)c2ccc(N=[N+]=[N-])cc2)c2ccccc2n1 [Example 102, (4-Azido-phenyl)-(2-methyl-quinazolin-4-yl)-methyl-amine]	–
